According to publication PMC9206137, “Synergistic anti-SARS-CoV-2 activity of repurposed anti-parasitic drug combinations” (BMC Pharmacology & Toxicology, 2022):
Where “and” joins values, the source holds several entries; their conditions need not be identical. Identical values can stand only once. Like-named read-outs stand apart in the source and are kept apart here.

How the values were obtained:
SARS-CoV-2 [1] = assay: Antiviral activity against SARS-CoV-2 in Vero E6 cells, plaque assay; format: cell-based; details: Vero E6; for %inhibition (plaque assay): replicates
Vero E6 cells = assay: Cell viability assay (MTT) in Vero E6 cells; details: for %cell viability / cell viability: replicates; for cell viability: Vero E6 cells
Procedure: (§1) Subsequently, the cell viability was assessed using MTT dyes (Invitrogen) in duplicate (Supplementary file 1). The procedure was described elsewhere. The viability of drug-treated cells was expressed as percent cell viability relative to 0.5% DMSO-treated cells.

SARS-CoV-2 [2] = assay: microbe, parasite or virus in culture; format: cell-based; details: for %inhibition (plaque assay) / % inhibition: replicates; for % inhibition: Calu-3 cells
Calu-3 cells = assay: Cell viability assay (MTT) in Calu-3 cells; details: for %cell viability / cell viability: replicates; for cell viability: Calu-3 cells
Procedure: as §1

[3] = humans; oral 200 μg/kg; mean ± SD; cited from earlier work
[4] = calculated based on lung: plasma ratio in cattle; cited from earlier work
dengue virus = details: read-out: IC50 against dengue virus, cited from earlier work
SARS-CoV-2 [5] = details: cited from earlier work
[6] = system: plasma nonstructural protein 1; details: dengue patients; cited from earlier work
SARS-CoV-2 [7] = assay: Antiviral activity against SARS-CoV-2 in Vero E6 cells, one-step qRT-PCR (single drugs, two-drug combinations, synergy analysis); details: for %inhibition (qRT-PCR) / % inhibition: replicates; for % inhibition: Vero E6 cells

ivermectin
IC50 (SARS-CoV-2 [1]; MOI 0.01, 48 hours, single drug): 1.23 µM
%inhibition (plaque assay) (SARS-CoV-2 [1]; ivermectin 0.15625 uM): 7.34% and 7.50% and 7.15%
%inhibition (plaque assay) (SARS-CoV-2 [1]; ivermectin 0.3125 uM): 29.78% and 21.00% and 25.31%
%inhibition (plaque assay) (SARS-CoV-2 [1]; ivermectin 0.625 uM): 30.26% (2×) and 32.64%
%inhibition (plaque assay) (SARS-CoV-2 [1]; ivermectin 1.25 uM): 52.64% and 56.27% and 48.59%
%inhibition (plaque assay) (SARS-CoV-2 [1]; ivermectin 2.5 uM): 63.02% and 62.70% and 66.77%
%inhibition (plaque assay) (SARS-CoV-2 [1]; ivermectin 5 uM): 78.39% and 83.51% and 83.02%
CC50 (Vero E6 cells; Vero E6, MTT, 48 hours): 10.6 µM
%cell viability (Vero E6 cells; Vero E6, ivermectin 0.15625 uM): 102.24%
%cell viability (Vero E6 cells; Vero E6, ivermectin 0.3125 uM): 100.47% and 100.17%
%cell viability (Vero E6 cells; Vero E6, ivermectin 0.625 uM): 102.19%
%cell viability (Vero E6 cells; Vero E6, ivermectin 1.25 uM): 100.11% and 101.75%
%cell viability (Vero E6 cells; Vero E6, ivermectin 2.5 uM): 99.32%
%cell viability (Vero E6 cells; Vero E6, ivermectin 5 uM): 83.87% and 88.89%
%cell viability (Vero E6 cells; Vero E6, ivermectin 10 uM): 55.14% and 53.62% and 46.86%
%cell viability (Vero E6 cells; Vero E6, ivermectin 20 uM): 21.86% and 15.62% and 14.14%
%cell viability (Vero E6 cells; Vero E6, ivermectin 40 uM): 12.31% and 10.14% and 11.10%
cell viability (Vero E6 cells; Ivermectin 0.3 uM alone): 100.47 and 100.17
cell viability (Vero E6 cells; Ivermectin 0.6 uM alone): 102.19
cell viability (Vero E6 cells; Ivermectin 1.2 uM alone): 100.11 and 101.75
cell viability (Vero E6 cells; Ivermectin 2.4 uM alone): 99.32
IC50 (SARS-CoV-2 [2]; Calu-3, 500 TCID50, plaque assay, single drug): 0.2 µM
%inhibition (plaque assay) (SARS-CoV-2 [2]; Calu-3, ivermectin 0.048828 uM): 7.34% and 7.50% and 6.92%
%inhibition (plaque assay) (SARS-CoV-2 [2]; Calu-3, ivermectin 0.195313 uM): 43.75% and 44.69% and 42.02%
%inhibition (plaque assay) (SARS-CoV-2 [2]; Calu-3, ivermectin 0.390625 uM): 55.86% and 56.30% and 55.45%
%inhibition (plaque assay) (SARS-CoV-2 [2]; Calu-3, ivermectin 0.78125 uM): 63.14% and 86.03% and 74.50%
%inhibition (plaque assay) (SARS-CoV-2 [2]; Calu-3, ivermectin 1.5625 uM): 90.72% and 80.25% and 82.92%
%inhibition (plaque assay) (SARS-CoV-2 [2]; Calu-3, ivermectin 3.125 uM): 98.34% and 97.94% and 90.53%
% inhibition (SARS-CoV-2 [2]; Ivermectin 0.05 uM alone): 26.67% (2×) and 33.33%
% inhibition (SARS-CoV-2 [2]; Ivermectin 0.10 uM alone): 33.33% and 26.67% and 40.00%
% inhibition (SARS-CoV-2 [2]; Ivermectin 0.20 uM alone): 40.00% and 66.67% and 53.33%
% inhibition (SARS-CoV-2 [2]; Ivermectin 0.40 uM alone): 53.33% and 73.33% and 66.67%
CC50 (Calu-3 cells; Calu-3, MTT, 48 hours): 3.1 µM
%cell viability (Calu-3 cells; Calu-3, ivermectin 0.048828 uM): 101.77% and 102.10%
%cell viability (Calu-3 cells; Calu-3, ivermectin 0.195313 uM): 103.33%
%cell viability (Calu-3 cells; Calu-3, ivermectin 0.390625 uM): 106.67% and 102.92%
%cell viability (Calu-3 cells; Calu-3, ivermectin 0.78125 uM): 103.89%
%cell viability (Calu-3 cells; Calu-3, ivermectin 1.5625 uM): 100.11% and 106.94%
%cell viability (Calu-3 cells; Calu-3, ivermectin 3.125 uM): 41.94% and 53.47%
%cell viability (Calu-3 cells; Calu-3, ivermectin 6.25 uM): 6.67%
%cell viability (Calu-3 cells; Calu-3, ivermectin 12.5 uM): 6.53% and 6.39%
cell viability (Calu-3 cells; Ivermectin 0.05 uM alone): 100.07 and 99.88
cell viability (Calu-3 cells; Ivermectin 0.10 uM alone): 99.91 and 100.11
cell viability (Calu-3 cells; Ivermectin 0.20 uM alone): 101.94 and 95.31
cell viability (Calu-3 cells; Ivermectin 0.40 uM alone): 94.38 and 100.45
maximum plasma concentration [3]: 0.049 ± 0.02 µM
predicted maximum lung concentration [4]: 0.0873 µM
IC50 (dengue virus; Huh-7 cells): ~4.64 µM
IC50 (dengue virus; immortalized hepatocyte-like cell line): ~5.33 µM
reduction in SARS-CoV-2 replication in vitro (SARS-CoV-2 [5]): up to 5000 fold
level of plasma nonstructural protein 1 [6]: reduce
%inhibition (qRT-PCR) (SARS-CoV-2 [7]; Vero E6, ivermectin 0.15625 uM): 20.77% and 18.77% and 17.59%
%inhibition (qRT-PCR) (SARS-CoV-2 [7]; Vero E6, ivermectin 0.3125 uM): 22.09% and 7.36% and 10.53%
%inhibition (qRT-PCR) (SARS-CoV-2 [7]; Vero E6, ivermectin 0.625 uM): 17.18% and 18.46% and 16.20%
%inhibition (qRT-PCR) (SARS-CoV-2 [7]; Vero E6, ivermectin 1.25 uM): 48.83% and 48.22% and 45.15%
%inhibition (qRT-PCR) (SARS-CoV-2 [7]; Vero E6, ivermectin 2.5 uM): 68.53% and 77.48% and 81.10%
%inhibition (qRT-PCR) (SARS-CoV-2 [7]; Vero E6, ivermectin 5 uM): 80.18% and 78.28% and 78.87%
% inhibition (SARS-CoV-2 [7]; Ivermectin 0.3 uM alone): 24.74% and 21.54% and 19.89%
% inhibition (SARS-CoV-2 [7]; Ivermectin 0.6 uM alone): 40.13% and 29.29% and 31.22%
% inhibition (SARS-CoV-2 [7]; Ivermectin 1.2 uM alone): 46.41% and 46.78% and 47.88%
% inhibition (SARS-CoV-2 [7]; Ivermectin 2.4 uM alone): 68.57% and 80.79% and 75.01%
IC50 (SARS-CoV-2 [7]; read-out: IC50 (μM) qRT-PCR, Vero E6, MOI 0.01, 48 hours, single drug): 1.27 µM
